Source: BindingDB's records for patent US11547697 (Millennium Pharmaceuticals, 2023)

Assays:
Experiment in all cases: Inhibition Assay of PI3K
[1] = target: Phosphatidylinositol 4,5-bisphosphate 3-kinase catalytic subunit beta isoform (Homo sapiens, UniProt P42338)
[2] = target: Phosphatidylinositol 4,5-bisphosphate 3-kinase catalytic subunit gamma isoform (Homo sapiens, UniProt P48736)
[3] = target: T1, Phosphatidylinositol 4,5-bisphosphate 3-kinase catalytic subunit delta isoform (Homo sapiens, UniProt O00329)
T1 sequence (O00329 whole entry): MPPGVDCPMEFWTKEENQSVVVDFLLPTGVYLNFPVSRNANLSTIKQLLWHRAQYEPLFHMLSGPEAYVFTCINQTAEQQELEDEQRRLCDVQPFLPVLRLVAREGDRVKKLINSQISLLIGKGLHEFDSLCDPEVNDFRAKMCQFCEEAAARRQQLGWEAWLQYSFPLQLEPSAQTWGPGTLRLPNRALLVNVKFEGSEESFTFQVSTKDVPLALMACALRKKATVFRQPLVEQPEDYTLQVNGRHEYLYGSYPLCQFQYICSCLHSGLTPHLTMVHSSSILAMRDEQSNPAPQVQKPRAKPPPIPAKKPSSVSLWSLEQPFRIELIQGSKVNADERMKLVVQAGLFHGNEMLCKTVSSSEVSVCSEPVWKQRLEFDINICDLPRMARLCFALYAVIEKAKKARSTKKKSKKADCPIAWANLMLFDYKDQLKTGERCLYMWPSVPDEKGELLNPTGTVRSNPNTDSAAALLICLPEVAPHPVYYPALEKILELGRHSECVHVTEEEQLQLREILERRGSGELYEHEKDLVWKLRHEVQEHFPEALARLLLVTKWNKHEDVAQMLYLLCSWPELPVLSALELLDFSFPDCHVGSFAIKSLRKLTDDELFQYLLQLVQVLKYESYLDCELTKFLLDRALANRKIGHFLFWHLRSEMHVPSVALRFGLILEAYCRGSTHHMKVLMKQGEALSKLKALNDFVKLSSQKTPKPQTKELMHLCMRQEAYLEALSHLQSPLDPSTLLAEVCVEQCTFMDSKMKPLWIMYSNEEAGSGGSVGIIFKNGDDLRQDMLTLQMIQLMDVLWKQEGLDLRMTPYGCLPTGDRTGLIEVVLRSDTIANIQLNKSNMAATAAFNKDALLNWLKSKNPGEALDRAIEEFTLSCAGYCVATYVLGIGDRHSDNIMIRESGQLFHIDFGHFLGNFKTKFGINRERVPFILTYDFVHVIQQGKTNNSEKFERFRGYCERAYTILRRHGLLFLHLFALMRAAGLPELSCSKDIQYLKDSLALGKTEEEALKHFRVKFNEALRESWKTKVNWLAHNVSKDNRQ

Sequence of Phosphatidylinositol 4,5-bisphosphate 3-kinase catalytic subunit beta isoform (P42338 whole entry, canonical isoform): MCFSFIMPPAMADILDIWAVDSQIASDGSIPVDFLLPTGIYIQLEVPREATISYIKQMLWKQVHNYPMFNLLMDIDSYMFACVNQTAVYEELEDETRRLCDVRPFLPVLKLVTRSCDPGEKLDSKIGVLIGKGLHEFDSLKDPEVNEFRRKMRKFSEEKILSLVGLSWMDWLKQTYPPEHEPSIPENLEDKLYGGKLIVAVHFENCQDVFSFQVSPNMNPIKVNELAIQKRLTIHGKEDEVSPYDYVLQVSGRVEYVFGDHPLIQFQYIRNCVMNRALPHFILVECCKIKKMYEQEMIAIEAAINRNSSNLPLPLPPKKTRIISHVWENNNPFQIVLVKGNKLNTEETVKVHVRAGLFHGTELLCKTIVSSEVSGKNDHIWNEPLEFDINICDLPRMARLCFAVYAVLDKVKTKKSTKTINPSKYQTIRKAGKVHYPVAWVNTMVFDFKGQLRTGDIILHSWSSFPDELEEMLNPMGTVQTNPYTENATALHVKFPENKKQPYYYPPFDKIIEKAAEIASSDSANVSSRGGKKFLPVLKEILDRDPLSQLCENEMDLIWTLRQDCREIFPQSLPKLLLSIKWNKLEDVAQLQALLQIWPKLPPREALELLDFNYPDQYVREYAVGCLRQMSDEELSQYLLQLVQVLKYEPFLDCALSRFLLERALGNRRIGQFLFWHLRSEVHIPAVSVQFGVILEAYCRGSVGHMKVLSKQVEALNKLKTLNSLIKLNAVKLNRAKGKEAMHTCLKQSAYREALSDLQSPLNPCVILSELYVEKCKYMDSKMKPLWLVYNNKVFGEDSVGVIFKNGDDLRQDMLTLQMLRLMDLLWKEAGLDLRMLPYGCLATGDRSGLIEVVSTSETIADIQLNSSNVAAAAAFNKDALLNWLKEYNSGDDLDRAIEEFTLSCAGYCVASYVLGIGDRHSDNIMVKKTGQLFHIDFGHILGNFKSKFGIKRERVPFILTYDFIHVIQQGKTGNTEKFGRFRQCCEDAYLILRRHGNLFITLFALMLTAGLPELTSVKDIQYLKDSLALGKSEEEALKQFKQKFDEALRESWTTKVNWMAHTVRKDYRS
Sequence of Phosphatidylinositol 4,5-bisphosphate 3-kinase catalytic subunit gamma isoform (P48736 whole entry, canonical isoform): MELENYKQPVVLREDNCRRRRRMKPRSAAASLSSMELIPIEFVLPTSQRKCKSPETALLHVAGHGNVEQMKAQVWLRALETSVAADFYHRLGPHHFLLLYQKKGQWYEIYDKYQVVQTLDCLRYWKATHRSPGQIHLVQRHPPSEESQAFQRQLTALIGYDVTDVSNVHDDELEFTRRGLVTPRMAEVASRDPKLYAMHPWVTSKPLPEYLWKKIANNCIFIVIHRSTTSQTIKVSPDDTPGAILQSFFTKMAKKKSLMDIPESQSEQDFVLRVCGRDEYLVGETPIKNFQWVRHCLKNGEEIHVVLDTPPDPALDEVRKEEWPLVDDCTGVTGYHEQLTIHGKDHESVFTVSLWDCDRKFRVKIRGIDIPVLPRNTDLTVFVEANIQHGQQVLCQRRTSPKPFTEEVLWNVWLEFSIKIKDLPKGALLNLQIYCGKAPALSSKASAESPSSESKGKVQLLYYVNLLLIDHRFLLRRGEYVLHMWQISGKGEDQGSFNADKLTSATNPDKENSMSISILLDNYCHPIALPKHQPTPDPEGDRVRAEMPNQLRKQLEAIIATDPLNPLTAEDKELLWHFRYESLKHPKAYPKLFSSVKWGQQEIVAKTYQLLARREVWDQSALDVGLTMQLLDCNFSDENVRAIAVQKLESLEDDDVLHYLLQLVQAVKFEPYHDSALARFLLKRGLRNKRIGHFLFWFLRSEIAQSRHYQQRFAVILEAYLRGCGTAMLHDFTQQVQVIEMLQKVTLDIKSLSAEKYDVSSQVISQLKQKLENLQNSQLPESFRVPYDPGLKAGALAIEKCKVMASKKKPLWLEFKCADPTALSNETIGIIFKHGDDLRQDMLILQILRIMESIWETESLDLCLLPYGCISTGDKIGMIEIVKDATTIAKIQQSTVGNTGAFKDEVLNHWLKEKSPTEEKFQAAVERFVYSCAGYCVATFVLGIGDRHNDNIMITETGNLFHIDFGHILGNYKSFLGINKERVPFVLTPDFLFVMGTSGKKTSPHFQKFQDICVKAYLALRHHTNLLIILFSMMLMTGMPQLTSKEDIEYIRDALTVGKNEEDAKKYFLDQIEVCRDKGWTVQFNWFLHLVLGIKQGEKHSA

| Compound | IC50 [1] [µM] | IC50 [2] [µM] | IC50 [3] [µM] |
| --- | --- | --- | --- |
| Nc1nc2cc(-c3ccc4ncc(-c5ccnc(N6CCOCC6)c5)nc4c3)ccc2o1 [US11547697, Compound 150] | > 10 | > 10 | > 10 |
| COc1ncc(-c2ccc3ncc(C(=O)N4CCOCC4)n3c2)cc1N [US11547697, Compound 414] | > 10 | > 10 | > 10 |
| Cc1cc2oc(N)nc2cc1-c1ccc2ncc(N3CC(N4CCOCC4)C3)nc2c1 [US11547697, Compound 353] | > 10 | > 10 | > 10 |
| COc1ccc(-c2ccc3ncc(C(=O)N4CCOCC4)n3c2)cc1S(=O)(=O)Nc1ccccc1 [US11547697, Compound 444] | > 10 | > 10 | > 10 |
| CN1CCN(CCn2cnc3ccc(-c4ccc5oc(N)nc5c4)cc3c2=O)CC1 [US11547697, Compound 280] | > 10 | > 10 | > 10 |
| O=C(c1cnc2ccc(-c3cncc(S(=O)(=O)Nc4ccccc4)c3)cn12)N1CCOCC1 [US11547697, Compound 447] | > 10 | > 10 | > 10 |
| Nc1nc2cc(-c3ccc4ncc(N5CCOCC5)n4c3)ccc2o1 [US11547697, Compound 53] | > 10 | > 10 | > 10 |
| CNS(=O)(=O)c1cncc(-c2ccc3ncc(C(=O)N4CCOCC4)n3c2)c1 [US11547697, Compound 450] | > 10 | > 10 | > 10 |
| CCN1CCN(c2cnc3ccc(-c4ccc5oc(N)nc5c4)cc3n2)C(=O)C1 [US11547697, Compound 391] | > 10 | > 10 | > 10 |
| O=C(c1cnc2ccc(-c3ccc4oc(NC5CC5)nc4c3)cn12)N1CCOCC1 [US11547697, Compound 409] | > 10 | > 10 | > 10 |
| CN(C)C1CCN(C(=O)c2cnc3ccc(-c4ccc5oc(N)nc5c4)cn23)CC1 [US11547697, Compound 304] | > 10 | > 10 | > 10 |
| CN1CCN(CCCn2cnc3ccc(-c4ccc5oc(N)nc5c4)cc3c2=O)CC1 [US11547697, Compound 291] | > 10 | > 10 | > 10 |
| Cc1cc2oc(N)nc2cc1-c1ccc2ncc(N3CCN[C@@H](C)C3)nc2c1 [US11547697, Compound 351] | – | > 10 | > 10 |
| Nc1nc2cc(-c3ccc4ncc(C(=O)N5CCOCC5)cc4c3)ccc2o1 [US11547697, Compound 97] | > 10 | > 10 | > 10 |
| CC(C)N1CCN(C(=O)c2cnc3ccc(-c4ccc5oc(N)nc5c4)cn23)CC1 [US11547697, Compound 160] | – | > 10 | > 10 |
| Nc1nc2cc(-c3ccc4ncc(-c5ccc(N6CCOCC6)nc5)nc4c3)ccc2o1 [US11547697, Compound 167] | > 10 | > 10 | > 10 |
| Nc1nc2cc(-c3ccc4ncc(C(=O)N5CCC(N)CC5)n4c3)ccc2o1 [US11547697, Compound 204] | – | > 10 | > 10 |
| CCN1CCC(n2cnc3ccc(-c4ccc5oc(N)nc5c4)cc3c2=O)CC1 [US11547697, Compound 73] | – | > 10 | > 10 |
| CC(=O)N1CCC(n2cnc3ccc(-c4ccc5oc(N)nc5c4)cc3c2=O)CC1 [US11547697, Compound 66] | – | > 10 | > 10 |
| Nc1nc2cc(-c3ccc4nnc(-c5cccnc5)n4c3)ccc2o1 [US11547697, Compound 300] | – | > 10 | > 10 |
| Nc1nc2cc(-c3ccc4ncc(N5CC(N6CCOCC6)C5)nc4c3)c(Cl)cc2o1 [US11547697, Compound 371] | – | > 10 | > 10 |
| CCN(CC)CCCn1cnc2ccc(-c3ccc4oc(N)nc4c3)cc2c1=O [US11547697, Compound 281] | > 10 | > 10 | – |
| CN1CCN(C(=O)c2cnc3ccc(-c4ccc5nc(N)sc5c4)cn23)CC1 [US11547697, Compound 146] | – | > 10 | > 10 |
| CN1CCCN(C(=O)c2cnc3ccc(-c4ccc5oc(N)nc5c4)cn23)CC1 [US11547697, Compound 140] | – | > 10 | > 10 |

Next, values leading:

| IC50 [1] [µM] | IC50 [2] [µM] | IC50 [3] [µM] | Compound |
| --- | --- | --- | --- |
| > 10 | > 10 | – | CN1CCN(C2CN(C(=O)c3cnc4ccc(-c5ccc6oc(N)nc6c5)cn34)C2)CC1 [US11547697, Compound 303] |
| > 10 | > 10 | > 10 | O=C(c1cnc2ccc(-c3cnc(Cl)c4[nH]ncc34)cn12)N1CCOCC1 [US11547697, Compound 516] |
| > 10 | > 10 | > 10 | Nc1nc2cccc(-c3ccc4ncc(C(=O)N5CCOCC5)n4c3)c2s1 [US11547697, Compound 485] |
| > 10 | > 10 | > 10 | CN1CCN(n2cnc3ccc(-c4ccc5oc(N)nc5c4)cc3c2=O)CC1 [US11547697, Compound 446] |
| > 10 | > 10 | > 10 | Nc1nsc2c(-c3ccc4ncc(C(=O)N5CCOCC5)n4c3)cccc12 [US11547697, Compound 474] |
| > 10 | > 10 | > 10 | CC1CN(C(=O)c2cnc3ccc(-c4ccc5oc(N)nc5c4)cn23)CC(C)N1 (stereo unspecified) [US11547697, Compound 142] |
| > 10 | > 10 | > 10 | CC1(C)COCCN1C(=O)c1cnc2ccc(-c3ccc4oc(N)nc4c3)cn12 [US11547697, Compound 514] |
| – | > 10 | > 10 | COC(=O)N1CCC(n2ncc3c(N4CCOCC4)nc(-c4ccc5oc(N)nc5c4)nc32)CC1 [US11547697, Compound 330] |
| – | > 10 | > 10 | CNc1nc2cc(-c3ccc4ncc(C(=O)N5CCOCC5)n4c3)ccc2o1 [US11547697, Compound 406] |
| > 10 | > 10 | > 10 | Cc1nc(NC(=O)N2CCC[C@H]2C(N)=O)sc1-c1ccc2oc(N)nc2c1 [US11547697, Compound 311] |
| > 10 | > 10 | > 10 | Nc1nc2ccc(-c3ccc4ncn(C5CCOCC5)c(=O)c4c3)cc2o1 [US11547697, Compound 63] |
| > 10 | > 10 | > 10 | Nc1nc2cc(-c3ccc4ncn(C5CCCC5)c(=O)c4c3)ccc2o1 [US11547697, Compound 256] |
| – | > 10 | > 10 | CN1CC(n2cnc3ccc(-c4ccc5oc(N)nc5c4)cc3c2=O)C1 [US11547697, Compound 528] |
| – | > 10 | > 10 | Nc1nc2ccc(-c3ccc4nnc(-c5cccnc5)n4c3)cc2o1 [US11547697, Compound 301] |
| > 10 | > 10 | > 10 | Nc1nc2cc(-c3ccc4ncn(CCCN5CCOCC5)c(=O)c4c3)ccc2o1 [US11547697, Compound 290] |
| > 10 | > 10 | > 10 | CN1CCN(C(=O)c2cnc3cnc(-c4ccc5oc(N)nc5c4)cn23)CC1 [US11547697, Compound 123] |
| > 10 | > 10 | > 10 | CN(C)CCn1cnc2ccc(-c3ccc4oc(N)nc4c3)cc2c1=O [US11547697, Compound 292] |
| > 10 | > 10 | > 10 | Nc1nc2cc(-c3ccc4ncc(-c5ccccc5)nc4c3)ccc2o1 [US11547697, Compound 180] |
| – | > 10 | > 10 | Nc1nc2cc(-c3ccc4ncc(C(=O)N5CCNCC5)n4c3)ccc2o1 [US11547697, Compound 111] |
| > 10 | > 10 | > 10 | Nc1nc2nc(-c3ccc4ncc(C(=O)N5CCOCC5)n4c3)ccc2o1 [US11547697, Compound 412] |
| > 10 | > 10 | > 10 | Nc1nc2cc(-c3ccc4ncn(C5CCOCC5)c4c3)ccc2o1 [US11547697, Compound 48] |
| > 10 | > 10 | > 10 | Cc1ncccc1-c1cnc2ccc(-c3ccc4oc(N)nc4c3)cc2n1 [US11547697, Compound 185] |
| – | > 10 | > 10 | CN1CCN(C(=O)c2cnc3ccc(-c4ccc5sc(N)nc5c4)cn23)CC1 [US11547697, Compound 144] |
| – | > 10 | > 10 | CN1CCC(c2cnc3ccc(-c4ccc5oc(N)nc5c4)cc3n2)CC1 [US11547697, Compound 385] |
